Measurements taken from the NIST ThermoML archive (doi:10.1016/j.tca.2007.05.009).
“And” between values parts separate entries of the source, which are not always exact repeats. Identical values can stand only once. ± gives the expanded uncertainty stated by the source.

Settings: Crystal

CC/N=C(/N)S [ethylthiourea]
vapor or sublimation pressure (356.5 K, Calculated from knudsen effusion weight loss): 0.000282 ± 1.4e-05 kPa | vapor or sublimation pressure (357 K, Calculated from knudsen effusion weight loss): 0.000309 ± 1.6e-05 kPa | vapor or sublimation pressure (360 K, Torsion effusion method): 0.000331 ± 1.7e-05 kPa | vapor or sublimation pressure (360.5 K, Calculated from knudsen effusion weight loss): 0.000417 ± 2.1e-05 kPa | vapor or sublimation pressure (361 K, Torsion effusion method): 0.000437 ± 2.2e-05 kPa | vapor or sublimation pressure (362 K, Calculated from knudsen effusion weight loss): 0.00049 ± 2.5e-05 kPa | vapor or sublimation pressure (363 K, Torsion effusion method): 0.000447 ± 2.2e-05 kPa | vapor or sublimation pressure (364 K, Torsion effusion method): 0.00055 ± 2.8e-05 kPa | vapor or sublimation pressure (365 K, Torsion effusion method): 0.000661 ± 3.3e-05 kPa | vapor or sublimation pressure (366 K, Torsion effusion method): 0.000631 ± 3.2e-05 kPa | vapor or sublimation pressure (366.5 K, Torsion effusion method): 0.000813 ± 4.1e-05 kPa | vapor or sublimation pressure (367 K, Torsion effusion method): 0.000741 ± 3.7e-05 kPa | vapor or sublimation pressure (367.5 K, Calculated from knudsen effusion weight loss): 0.000912 ± 4.6e-05 kPa | vapor or sublimation pressure (368 K, Torsion effusion method): 0.000912 ± 4.6e-05 kPa and 0.000646 ± 3.2e-05 kPa | vapor or sublimation pressure (368.5 K, Torsion effusion method): 0.000794 ± 4e-05 kPa | vapor or sublimation pressure (369 K, Torsion effusion method): 0.000891 ± 4.5e-05 kPa | vapor or sublimation pressure (369.5 K, Torsion effusion method): 0.001175 ± 5.9e-05 kPa | vapor or sublimation pressure (370 K, Torsion effusion method): 0.001047 ± 5.2e-05 kPa and 0.000871 ± 4.4e-05 kPa | vapor or sublimation pressure (370.5 K, Torsion effusion method): 0.001175 ± 5.9e-05 kPa | vapor or sublimation pressure (371 K, Torsion effusion method): 0.001047 ± 5.2e-05 kPa and 0.001288 ± 6.5e-05 kPa and 0.001096 ± 5.5e-05 kPa | vapor or sublimation pressure (372 K, Torsion effusion method): 0.000977 ± 4.9e-05 kPa | vapor or sublimation pressure (373 K, Torsion effusion method): 0.001288 ± 6.5e-05 kPa | vapor or sublimation pressure (374 K, Torsion effusion method): 0.00138 ± 6.9e-05 kPa and 0.001738 ± 8.7e-05 kPa | vapor or sublimation pressure (374.5 K, Torsion effusion method): 0.001349 ± 6.8e-05 kPa | vapor or sublimation pressure (375 K, Torsion effusion method): 0.001862 ± 9.3e-05 kPa [middle of 4 runs] | vapor or sublimation pressure (376 K, Torsion effusion method): 0.001778 ± 8.9e-05 kPa [middle of 4 runs] | vapor or sublimation pressure (377 K, Torsion effusion method): 0.001905 ± 9.5e-05 kPa and 0.001698 ± 8.5e-05 kPa | vapor or sublimation pressure (378 K, Torsion effusion method): 0.002239 ± 0.00011 kPa [middle of 4 runs] | vapor or sublimation pressure (379 K, Torsion effusion method): 0.002692 ± 0.00014 kPa and 0.002884 ± 0.00014 kPa | vapor or sublimation pressure (379.5 K, Torsion effusion method): 0.00263 ± 0.00013 kPa | vapor or sublimation pressure (380 K, Torsion effusion method): 0.002951 ± 0.00015 kPa and 0.002188 ± 0.00011 kPa | vapor or sublimation pressure (380.5 K, Torsion effusion method): 0.002291 ± 0.00012 kPa
